Test system: MV-4-11 cells
Assay: Gene expression microarray analysis (Affymetrix PrimeView) and GSEA
Assay type: cell-based, human
Design: RFU PODN (11730768_x_at) / Fold change /veh PODN (11730768_x_at) / RFU LINC00158 (11744669_a_at) / Fold change /veh LINC00158 (11744669_a_at) / RFU DUSP10 (11751237_a_at) / Fold change /veh DUSP10 (11751237_a_at) / RFU ID3 (11757404_x_at) / Fold change /veh ID3 (11757404_x_at) / RFU PLEKHG5 (11737974_s_at) / Fold change /veh PLEKHG5 (11737974_s_at) / RFU LRRC4B (11730491_at) / Fold change /veh LRRC4B (11730491_at) / RFU GIMAP4 (11747438_a_at) / Fold change /veh GIMAP4 (11747438_a_at) / RFU KRT8 (11758183_x_at) / Fold change /veh KRT8 (11758183_x_at) / RFU CNN1 (11734310_a_at) / Fold change /veh CNN1 (11734310_a_at) / RFU VPS37D (11726825_at) / Fold change /veh VPS37D (11726825_at) / RFU C10orf10 (11716522_x_at) / Fold change /veh C10orf10 (11716522_x_at) / RFU KIR2DL2 /// KIR2DL4 /// KIR2DL5A /// KIR2DL5B /// KIR2DS1 /// KIR2DS2 /// KIR2DS3 /// KIR2DS4 /// KIR3DL3 /// KIR3DL3 /// KIR3DS1 (11738374_at) / Fold change /veh KIR2DL2 /// KIR2DL4 /// KIR2DL5A /// KIR2DL5B /// KIR2DS1 /// KIR2DS2 /// KIR2DS3 /// KIR2DS4 /// KIR3DL3 /// KIR3DL3 /// KIR3DS1 (11738374_at) / RFU C1QL1 (11718748_at) / Fold change /veh C1QL1 (11718748_at) / RFU TMPRSS4 (11747572_a_at) / Fold change /veh TMPRSS4 (11747572_a_at) / RFU HAMP (11756126_x_at) / Fold change /veh HAMP (11756126_x_at) / RFU RNFT2 (11725882_a_at) / Fold change /veh RNFT2 (11725882_a_at) / RFU NR4A2 (11747474_a_at) / Fold change /veh NR4A2 (11747474_a_at) / RFU ABCC12 (11746883_a_at) / Fold change /veh ABCC12 (11746883_a_at) / RFU TMEM136 (11760407_x_at) / Fold change /veh TMEM136 (11760407_x_at) / RFU CLDN22 /// WWC2 (11732394_at) / Fold change /veh CLDN22 /// WWC2 (11732394_at) / RFU HLA-DPB1 (11760878_x_at) / Fold change /veh HLA-DPB1 (11760878_x_at) / RFU SPINT1 (11716480_a_at) / Fold change /veh SPINT1 (11716480_a_at) / RFU GAP43 (11754022_s_at) / Fold change /veh GAP43 (11754022_s_at) / RFU A4GNT (11735810_at) / Fold change /veh A4GNT (11735810_at) / RFU PRB3 (11715151_x_at) / Fold change /veh PRB3 (11715151_x_at) / RFU TUBB4B (11761932_at) / Fold change /veh TUBB4B (11761932_at) / RFU CAPN14 (11732068_a_at) / Fold change /veh CAPN14 (11732068_a_at) / RFU TMCC2 (11721928_a_at) / Fold change /veh TMCC2 (11721928_a_at) / RFU IRGQ (11745062_a_at) / Fold change /veh IRGQ (11745062_a_at) / RFU FAM174B (11720279_a_at) / Fold change /veh FAM174B (11720279_a_at) / RFU TMPRSS4 (11748680_a_at) / Fold change /veh TMPRSS4 (11748680_a_at) / RFU FAM212B (11763350_a_at) / Fold change /veh FAM212B (11763350_a_at) / RFU PLEKHG5 (11743358_a_at) / Fold change /veh PLEKHG5 (11743358_a_at) / RFU ZSCAN30 (11745921_a_at) / Fold change /veh ZSCAN30 (11745921_a_at) / RFU CMKLR1 (11741424_a_at) / Fold change /veh CMKLR1 (11741424_a_at) / RFU LOC101060620 /// MAPK8IP1 (11723275_at) / Fold change /veh LOC101060620 /// MAPK8IP1 (11723275_at) / RFU SPTSSB (11747773_x_at) / Fold change /veh SPTSSB (11747773_x_at) / RFU PRSS12 (11739890_at) / Fold change /veh PRSS12 (11739890_at) / RFU BIN1 (11741810_x_at) / Fold change /veh BIN1 (11741810_x_at) / RFU WNT11 (11732464_a_at) / Fold change /veh WNT11 (11732464_a_at) / RFU C10orf10 (11716521_a_at) / Fold change /veh C10orf10 (11716521_a_at) / RFU C5orf56 (11738089_at) / Fold change /veh C5orf56 (11738089_at) / RFU CYB561 (11721691_x_at) / Fold change /veh CYB561 (11721691_x_at) / RFU ANKRD19P (11752326_a_at) / Fold change /veh ANKRD19P (11752326_a_at) / RFU OR2T12 /// OR2T33 /// OR2T8 (11738714_s_at) / Fold change /veh OR2T12 /// OR2T33 /// OR2T8 (11738714_s_at) / RFU VCAN (11748164_a_at) / Fold change /veh VCAN (11748164_a_at) / RFU JSRP1 (11732532_at) / Fold change /veh JSRP1 (11732532_at) / RFU KRTAP10-11 (11738290_x_at) / Fold change /veh KRTAP10-11 (11738290_x_at) / RFU MYO3A (11730013_a_at) / Fold change /veh MYO3A (11730013_a_at) / RFU EBF3 (11725865_a_at) / Fold change /veh EBF3 (11725865_a_at) / RFU CAMK2N1 (11719241_x_at) / Fold change /veh CAMK2N1 (11719241_x_at) / RFU C5orf56 (11738088_a_at) / Fold change /veh C5orf56 (11738088_a_at) / RFU OLFML3 (11715873_a_at) / Fold change /veh OLFML3 (11715873_a_at) / RFU LOC100653217 /// NTM (11731650_a_at) / Fold change /veh LOC100653217 /// NTM (11731650_a_at) / RFU MAPK11 (11762145_a_at) / Fold change /veh MAPK11 (11762145_a_at) / RFU FIZ1 (11724087_x_at) / Fold change /veh FIZ1 (11724087_x_at) / RFU OASL (11726364_x_at) / Fold change /veh OASL (11726364_x_at) / RFU SOX15 (11748057_x_at) / Fold change /veh SOX15 (11748057_x_at) / RFU CD79A (11719716_a_at) / Fold change /veh CD79A (11719716_a_at) / RFU HIST1H1D (11736915_at) / Fold change /veh HIST1H1D (11736915_at) / RFU CASKIN2 (11723855_a_at) / Fold change /veh CASKIN2 (11723855_a_at) / RFU LOC730098 (11760151_x_at) / Fold change /veh LOC730098 (11760151_x_at) / RFU OR4N2 (11742367_at) / Fold change /veh OR4N2 (11742367_at) / RFU PRRT2 (11749266_a_at) / Fold change /veh PRRT2 (11749266_a_at) / RFU SNX32 (11753110_a_at) / Fold change /veh SNX32 (11753110_a_at) / RFU CDHR5 (11726645_a_at) / Fold change /veh CDHR5 (11726645_a_at) / RFU RCAN1 (11760418_a_at) / Fold change /veh RCAN1 (11760418_a_at) / RFU FAM167A (11723789_a_at) / Fold change /veh FAM167A (11723789_a_at) / RFU FAM26E (11764081_at) / Fold change /veh FAM26E (11764081_at) / RFU ISYNA1 (11749810_s_at) / Fold change /veh ISYNA1 (11749810_s_at) / RFU ACY1 (11761880_at) / Fold change /veh ACY1 (11761880_at) / RFU 11764098_at / Fold change /veh 11764098_at / RFU SAMD14 (11745864_x_at) / Fold change /veh SAMD14 (11745864_x_at) / RFU NPB (11741838_a_at) / Fold change /veh NPB (11741838_a_at) / RFU TMPRSS6 (11731388_a_at) / Fold change /veh TMPRSS6 (11731388_a_at) / RFU KRTAP10-2 (11738614_at) / Fold change /veh KRTAP10-2 (11738614_at) / RFU ARHGAP8 /// PRR5-ARHGAP8 (11727945_x_at) / Fold change /veh ARHGAP8 /// PRR5-ARHGAP8 (11727945_x_at) / RFU KRTAP5-7 /// NADSYN1 (11734609_at) / Fold change /veh KRTAP5-7 /// NADSYN1 (11734609_at) / RFU RASL12 (11751679_a_at) / Fold change /veh RASL12 (11751679_a_at) / RFU CDKN2B (11736163_a_at) / Fold change /veh CDKN2B (11736163_a_at) / RFU PRF1 (11729649_at) / Fold change /veh PRF1 (11729649_at) / RFU, ZNF638 /// ZNF638-IT1 / Fold change vs veh, ZNF638 /// ZNF638-IT1 / RFU, PANK3 / Fold change vs veh, PANK3 / RFU, SH3YL1 / Fold change vs veh, SH3YL1 / RFU, ZEB2 / Fold change vs veh, ZEB2 / RFU, NRIP1 / Fold change vs veh, NRIP1 / RFU, PTTG1IP / Fold change vs veh, PTTG1IP / RFU, CAPN2 / Fold change vs veh, CAPN2 / RFU, MED14 / Fold change vs veh, MED14 / RFU, SNORA58 / Fold change vs veh, SNORA58 / RFU, C1orf63 / Fold change vs veh, C1orf63 / RFU, LRRFIP1 / Fold change vs veh, LRRFIP1 / RFU, NDUFAF7 / Fold change vs veh, NDUFAF7 / RFU, SLC12A2 / Fold change vs veh, SLC12A2 / RFU, IBTK / Fold change vs veh, IBTK / RFU, ESF1 / Fold change vs veh, ESF1 / Fold change vs veh, TMEM50B / RFU, TAOK1 / Fold change vs veh, TAOK1 / RFU, ACBD3 / Fold change vs veh, ACBD3 / RFU, TMA16 / Fold change vs veh, TMA16 / RFU, RWDD3 / Fold change vs veh, RWDD3 / RFU, BCAT1 / Fold change vs veh, BCAT1 / RFU, EDEM3 / Fold change vs veh, EDEM3 / RFU, TMEM33 / Fold change vs veh, TMEM33 / RFU, WDR75 / Fold change vs veh, WDR75 / RFU, AHCTF1 / Fold change vs veh, AHCTF1 / RFU, TFRC / Fold change vs veh, TFRC / RFU, ZDHHC17 / Fold change vs veh, ZDHHC17 / RFU, NOM1 / Fold change vs veh, NOM1 / RFU, ARL8B / Fold change vs veh, ARL8B / RFU, ZBTB11 / Fold change vs veh, ZBTB11 / RFU, TAMM41 / Fold change vs veh, TAMM41 / RFU, KIAA1704 /// LOC100996395 / Fold change vs veh, KIAA1704 /// LOC100996395 / RFU, ING1 / Fold change vs veh, ING1 / RFU, TRMT61B / Fold change vs veh, TRMT61B / RFU, FUBP3 / Fold change vs veh, FUBP3 / RFU, TP53 / Fold change vs veh, TP53 / RFU, TNKS2 / Fold change vs veh, TNKS2 / RFU, ZFP14 / Fold change vs veh, ZFP14 / RFU, ACTR2 / Fold change vs veh, ACTR2 / RFU, PPP3R1 / Fold change vs veh, PPP3R1 / RFU, PIK3R1 / Fold change vs veh, PIK3R1 / RFU, HNRNPA1 / Fold change vs veh, HNRNPA1 / RFU, RNF170 / Fold change vs veh, RNF170 / RFU, ZNF28 / Fold change vs veh, ZNF28 / RFU, RNGTT / Fold change vs veh, RNGTT / RFU, OGT / Fold change vs veh, OGT / RFU, BRD1 / Fold change vs veh, BRD1 / RFU, MARS / Fold change vs veh, MARS / RFU, ZNF655 / Fold change vs veh, ZNF655 / RFU, FAHD1 / Fold change vs veh, FAHD1 / RFU, BDP1 / Fold change vs veh, BDP1 / RFU, LRRCC1 / Fold change vs veh, LRRCC1 / RFU, ARID1A / Fold change vs veh, ARID1A / RFU, ZNF146 / Fold change vs veh, ZNF146 / RFU, ZNF330 / Fold change vs veh, ZNF330 / RFU, GPN3 / Fold change vs veh, GPN3 / RFU, C9orf123 / Fold change vs veh, C9orf123 / RFU, N4BP2L2 / Fold change vs veh, N4BP2L2 / RFU, ARFIP1 / Fold change vs veh, ARFIP1 / RFU, FAM179B / Fold change vs veh, FAM179B / RFU, BCL10 / Fold change vs veh, BCL10 / RFU, UHRF1BP1L / Fold change vs veh, UHRF1BP1L / RFU, BET1 / Fold change vs veh, BET1 / RFU, CNOT2 / Fold change vs veh, CNOT2 / RFU, ZNF268 / Fold change vs veh, ZNF268 / Fold change vs veh, ZNF507 / RFU, DGCR2 / Fold change vs veh, DGCR2 / RFU, WDSUB1 / Fold change vs veh, WDSUB1 / Fold change vs veh, HSP90B1 /// MIR3652 / RFU, ADSS / Fold change vs veh, ADSS / RFU, GK / Fold change vs veh, GK / RFU, ZNF148 / Fold change vs veh, ZNF148 / RFU, TAF9 / Fold change vs veh, TAF9 / RFU, SLC1A5 / Fold change vs veh, SLC1A5 / RFU, SLMO2 / Fold change vs veh, SLMO2 / RFU, ABCC4 / Fold change vs veh, ABCC4 / RFU, LOC101060439 /// RAP1B / Fold change vs veh, LOC101060439 /// RAP1B / RFU, RFX7 / Fold change vs veh, RFX7 / RFU, GTPBP10 / Fold change vs veh, GTPBP10 / RFU, CNEP1R1 / Fold change vs veh, CNEP1R1 / RFU, BIVM-ERCC5 /// ERCC5 / Fold change vs veh, BIVM-ERCC5 /// ERCC5 / RFU, ILF3 / Fold change vs veh, ILF3 / RFU 11762660_at / Fold change /veh 11762660_at / RFU VCAN (11757783_s_at) / Fold change /veh VCAN (11757783_s_at) / RFU DDX43 (11728927_at) / Fold change /veh DDX43 (11728927_at) / RFU KRT8 (11758188_x_at) / Fold change /veh KRT8 (11758188_x_at) / RFU NKD1 (11759106_at) / Fold change /veh NKD1 (11759106_at) / RFU SRD5A1 (11742802_a_at) / Fold change /veh SRD5A1 (11742802_a_at) / RFU TPSAB1 /// TPSB2 (11721975_s_at) / Fold change /veh TPSAB1 /// TPSB2 (11721975_s_at) / RFU GSTM3 (11746129_a_at) / Fold change /veh GSTM3 (11746129_a_at) / RFU IL23R (11737362_x_at) / Fold change /veh IL23R (11737362_x_at) / RFU TMEM51 (11727254_a_at) / Fold change /veh TMEM51 (11727254_a_at) / RFU PIWIL2 (11732686_x_at) / Fold change /veh PIWIL2 (11732686_x_at) / RFU ORM1 (11744905_x_at) / Fold change /veh ORM1 (11744905_x_at) / RFU CCDC152 (11743942_at) / Fold change /veh CCDC152 (11743942_at) / RFU ECM1 (11717891_a_at) / Fold change /veh ECM1 (11717891_a_at) / RFU IL23R (11748794_a_at) / Fold change /veh IL23R (11748794_a_at) / RFU TNFAIP8L3 (11732012_x_at) / Fold change /veh TNFAIP8L3 (11732012_x_at) / RFU MBOAT4 (11741988_at) / Fold change /veh MBOAT4 (11741988_at) / RFU 11764193_at / Fold change /veh 11764193_at / RFU TMEM53 (11763286_at) / Fold change /veh TMEM53 (11763286_at) / RFU MAGEB2 (11727129_at) / Fold change /veh MAGEB2 (11727129_at) / RFU TMEM200A (11744735_a_at) / Fold change /veh TMEM200A (11744735_a_at) / RFU CCDC152 (11751479_a_at) / Fold change /veh CCDC152 (11751479_a_at) / RFU FAM211A (11726209_a_at) / Fold change /veh FAM211A (11726209_a_at) / RFU RGS16 (11746705_a_at) / Fold change /veh RGS16 (11746705_a_at) / RFU VCAN (11755009_s_at) / Fold change /veh VCAN (11755009_s_at) / RFU RHOB (11743442_s_at) / Fold change /veh RHOB (11743442_s_at) / RFU RGS16 (11720943_a_at) / Fold change /veh RGS16 (11720943_a_at) / RFU RGS16 (11720944_at) / Fold change /veh RGS16 (11720944_at) / RFU, VPS4B / Fold change vs veh, VPS4B / RFU, CREB1 / Fold change vs veh, CREB1 / RFU, DNAJC13 / Fold change vs veh, DNAJC13 / RFU, GNAQ / Fold change vs veh, GNAQ / RFU, CDK5R1 / Fold change vs veh, CDK5R1 / RFU, ZRANB3 / Fold change vs veh, ZRANB3 / RFU, CUL4A / Fold change vs veh, CUL4A / RFU, CCNY / Fold change vs veh, CCNY / RFU, UFL1 / Fold change vs veh, UFL1 / RFU, COG3 / Fold change vs veh, COG3 / RFU, DIAPH2 / Fold change vs veh, DIAPH2 / RFU, SKA2 / Fold change vs veh, SKA2 / RFU, AFF3 / Fold change vs veh, AFF3 / RFU, LMF1 / Fold change vs veh, LMF1 / RFU, IPO11 / Fold change vs veh, IPO11 / RFU, DFFB / Fold change vs veh, DFFB / RFU, FOXP1 / Fold change vs veh, FOXP1 / RFU, CARD8 / Fold change vs veh, CARD8 / RFU, STRN3 / Fold change vs veh, STRN3 / RFU, ADK / Fold change vs veh, ADK / RFU, RASSF2 / Fold change vs veh, RASSF2 / RFU, WIPF1 / Fold change vs veh, WIPF1 / RFU, LARP1B / Fold change vs veh, LARP1B / RFU, RASA1 / Fold change vs veh, RASA1 / RFU, RB1 / Fold change vs veh, RB1 / RFU, PPFIA1 / Fold change vs veh, PPFIA1 / RFU, MAT2A / Fold change vs veh, MAT2A / RFU, CCT5 / Fold change vs veh, CCT5 / RFU, WDR92 / Fold change vs veh, WDR92 / RFU, CUX1 / Fold change vs veh, CUX1 / RFU, TTC7A / Fold change vs veh, TTC7A / RFU, TMEM135 / Fold change vs veh, TMEM135 / RFU, DEPTOR / Fold change vs veh, DEPTOR / RFU, CPM / Fold change vs veh, CPM / RFU, DNAJB6 / Fold change vs veh, DNAJB6 / RFU, CACNA2D3 / Fold change vs veh, CACNA2D3 / RFU, DTX4 / Fold change vs veh, DTX4 / RFU, TFCP2 / Fold change vs veh, TFCP2 / RFU, GMCL1 /// GMCL1P1 / Fold change vs veh, GMCL1 /// GMCL1P1 / RFU, AEBP2 / Fold change vs veh, AEBP2 / RFU, SNHG1 /// SNORD22 /// SNORD25 /// SNORD26 /// SNORD27 /// SNORD28 /// SNORD29 /// SNORD31 / Fold change vs veh, SNHG1 /// SNORD22 /// SNORD25 /// SNORD26 /// SNORD27 /// SNORD28 /// SNORD29 /// SNORD31 / Fold change (Aza/veh), C12orf56 (ProbeSet 11735607_a_at) / Fold change (ACY-1035/veh), C12orf56 (ProbeSet 11735607_a_at) / Fold change (Aza/veh), FGFR1OP (ProbeSet 11751329_s_at) / Fold change (ACY-1035/veh), FGFR1OP (ProbeSet 11751329_s_at) / Fold change (Aza/veh), VPS36 (ProbeSet 11739960_a_at) / Fold change (ACY-1035/veh), VPS36 (ProbeSet 11739960_a_at) / RFU SYPL1 (11715823_x_at) / Fold change /veh SYPL1 (11715823_x_at) / RFU IGFBP7 (11715501_s_at) / Fold change /veh IGFBP7 (11715501_s_at) / RFU REEP3 (11722064_at) / Fold change /veh REEP3 (11722064_at) / RFU IGLL1 (11728026_x_at) / Fold change /veh IGLL1 (11728026_x_at): dose or concentration left out as unconfirmed
Conditions: MV-4-11 cells, 48 hours

## Nc1ccc(-c2cccs2)cc1NC(=O)c1ccc2c(c1)cc(C1CC1)n2CCN1CCOCC1 [ACY-1035]
  RFU JSRP1 (11732532_at): 43.67 RFU

From paper PMC5218480 (PLoS ONE, 2017)
